Several values for one entry are separate records, joined by “and”; a condition that tells them apart may be missing. Identical values can stand only once. Counter-ions that a name gives are not always drawn. Like-named read-outs stand apart in the source and are kept apart here.
Experiment: In vivo pharmacokinetics in rats
Set-up: species or system rat
Protocol: The pharmacokinetic experiments in rats were performed using compound 77 of the present invention as a representative example.
Procedure: 6 SD male rats (˜200 g, purchased from Shanghai Sippr-BK Experimental Animal Co., Ltd) were selected and divided into two groups according to the experimental design table (Table 9). Animals were administered intravenously and orally. Dosing was performed once on the treating day and the doses were 5 mg/kg and 10 mg/kg, respectively.
Drug formulation method: the required amount of test sample was added to a certain volume of 40% (HP-β-CD) aqueous solution, and then stirred under heating (temperature 25-45° C.) until dissolution, then the same volume of deionized water was added and adjusted to pH 5 with NaOH, to prepare 20% HP-β-CD clear aqueous solution.
For the intravenous administration group, blood samples were taken from jugular veins before administration and 2 min, 5 min, 15 min, 30 min, 1 h, 2 h, 4 h, 6 h, 8 h, and 24 h after administration; for the oral administration group, blood samples were taken from jugular veins before administration and 5 min, 30 min, 1 h, 2 h, 4 h, 6 h, 8 h, 10 h, and 24 h. The collected blood samples were centrifuged to separate plasma within 30 min (centrifugation condition: 8000 rpm, 6 minutes, 2-8° C.). The plasma samples were stored at −80° C. in a freezer before assay. The plasma samples were used for LC-MS/MS method development and sample testing.
The pharmacokinetic parameters (AUC(0-t), AUC(0-∞), T1/2, MRT(0-∞), Cmax, Tmax and F) were calculated using WinNonlin Professional v5.2 (Pharsight USA). In addition, the bioavailability (F) was calculated by the following formula.

[1] = SD rats, intravenously, 5 mg/kg, individual animals 101-103, listed as methanesulfonate of compound 77, 5 mg/kg
[2] = SD rats, orally, 10 mg/kg, individual animals 201-203, listed as methanesulfonate of compound 77, 10 mg/kg
[3] = male, SD, rat, plasma, iv, 5 mg/kg, intravenously, Mean
[4] = male, SD, rat, plasma, iv, 5 mg/kg, intravenously, individual animals 101-103
[5] = male, SD, rat, plasma, po, 10 mg/kg, orally, Mean
[6] = male, SD, rat, plasma, po, 10 mg/kg, orally, individual animals 201-203

COCCOc1ccc2c(c1)ncn2-c1ccc(NC(=O)Nc2cc(C(C)(C)C)n[nH]2)cc1 [Compound 77 Mesylate, 1-(5-tert-butyl-2H-pyrazol-3-yl)-3-{4-[5-(2-methoxyl-ethoxyl)-benzimidazol-1-yl]-phenyl}-urea]
AUC(0-t) [1]: 14458 ng·h/mL and 13825 ng·h/mL
AUC(0-∞) [1]: 14501 ng·h/mL and 13969 ng·h/mL
CL [1]: 345 mL/h/kg and 358 mL/h/kg
Cmax [1]: 20795 ng/mL and 17312 ng/mL
MRT(0-t) [1]: 3.86 h and 4.21 h
Vss [1]: 1355 mL/kg and 1599 mL/kg
Vz [1]: 1473 mL/kg and 2010 mL/kg
t½ [1]: 2.96 h and 3.89 h
AUC(0-t) [2]: 7249 ng·h/mL and 6927 ng·h/mL
AUC(0-∞) [2]: 7294 ng·h/mL and 7067 ng·h/mL
Cmax [2]: 1082 ng/mL and 1095 ng/mL
MRT(0-t) [2]: 5.07 h and 5.45 h
t½ [2]: 3.36 h and 4.53 h
AUC(0-t) (male, SD, rat, plasma, iv, 5 mg/kg, administered intravenously, 5 mg/kg, read-out: AUC(0-t)): 14400 ng·h/mL
Cmax (male, SD, rat, plasma, iv, 5 mg/kg, administered intravenously, 5 mg/kg, read-out: Cmax): 18700 ng/mL
AUC(0-t) (male, SD, rat, plasma, iv, 5 mg/kg, intravenously, 5 mg/kg, Mean, read-out: AUC(0-t)): 14400 ng·h/mL
Cmax (male, SD, rat, plasma, iv, 5 mg/kg, intravenously, 5 mg/kg, Mean, read-out: Cmax): 18700 ng/mL
MRT inf (male, SD, rat, plasma, iv, 5 mg/kg, intravenously, 5 mg/kg, Mean, read-out: MRT (0-∞)): 4.27 h
MRT last (male, SD, rat, plasma, iv, 5 mg/kg, intravenously, 5 mg/kg, Mean, read-out: MRT(0-t)): 4.03 h
Vd (male, SD, rat, plasma, iv, 5 mg/kg, intravenously, 5 mg/kg, Mean, read-out: Vss): 1.47 L/kg
Vd (male, SD, rat, plasma, iv, 5 mg/kg, intravenously, 5 mg/kg, Mean, read-out: Vz): 1.8 L/kg
half-life (male, SD, rat, plasma, iv, 5 mg/kg, intravenously, 5 mg/kg, Mean, read-out: t½ (converted)): 217 min
AUC(0-t) (male, SD, rat, plasma, iv, 5 mg/kg, intravenously, 5 mg/kg, individual animals 101-103, read-out: AUC(0-t)): 14900 ng·h/mL
Cmax (male, SD, rat, plasma, iv, 5 mg/kg, intravenously, 5 mg/kg, individual animals 101-103, read-out: Cmax): 18000 ng/mL
MRT inf (male, SD, rat, plasma, iv, 5 mg/kg, intravenously, 5 mg/kg, individual animals 101-103, read-out: MRT (0-∞)): 4.42 h
MRT last (male, SD, rat, plasma, iv, 5 mg/kg, intravenously, 5 mg/kg, individual animals 101-103, read-out: MRT(0-t)): 4.04 h
Vd (male, SD, rat, plasma, iv, 5 mg/kg, intravenously, 5 mg/kg, individual animals 101-103, read-out: Vss): 1.46 L/kg
Vd (male, SD, rat, plasma, iv, 5 mg/kg, intravenously, 5 mg/kg, individual animals 101-103, read-out: Vz): 1.91 L/kg
half-life (male, SD, rat, plasma, iv, 5 mg/kg, intravenously, 5 mg/kg, individual animals 101-103, read-out: t½ (converted)): 241 min
AUC(0-inf) [3]: 14500 ng·h/mL
clearance [3]: 5.73 mL/min/kg
AUC(0-inf) [4]: 15200 ng·h/mL
clearance [4]: 5.5 mL/min/kg
AUC(0-t) (male, SD, rat, plasma, po, 10 mg/kg, administered orally, 10 mg/kg, read-out: AUC(0-t)): 6770 ng·h/mL
Cmax (male, SD, rat, plasma, po, 10 mg/kg, administered orally, 10 mg/kg, read-out: Cmax): 1050 ng/mL
AUC(0-t) (male, SD, rat, plasma, po, 10 mg/kg, orally, 10 mg/kg, Mean, read-out: AUC(0-t)): 6770 ng·h/mL
Cmax (male, SD, rat, plasma, po, 10 mg/kg, orally, 10 mg/kg, Mean, read-out: Cmax): 1050 ng/mL
MRT last (male, SD, rat, plasma, po, 10 mg/kg, orally, 10 mg/kg, Mean, read-out: MRT(0-t)): 5.38 h
half-life (male, SD, rat, plasma, po, 10 mg/kg, orally, 10 mg/kg, Mean, read-out: t½ (converted)): 232 min
AUC(0-t) (male, SD, rat, plasma, po, 10 mg/kg, orally, 10 mg/kg, individual animals 201-203, read-out: AUC(0-t)): 6140 ng·h/mL
Cmax (male, SD, rat, plasma, po, 10 mg/kg, orally, 10 mg/kg, individual animals 201-203, read-out: Cmax): 977 ng/mL
MRT last (male, SD, rat, plasma, po, 10 mg/kg, orally, 10 mg/kg, individual animals 201-203, read-out: MRT(0-t)): 5.61 h
half-life (male, SD, rat, plasma, po, 10 mg/kg, orally, 10 mg/kg, individual animals 201-203, read-out: t½ (converted)): 222 min
AUC(0-inf) [5]: 6860 ng·h/mL
MRT [5]: 5.68 h
AUC(0-inf) [6]: 6210 ng·h/mL
MRT [6]: 5.9 h
Tmax (male, rat, plasma, po, SD rats, orally, 10 mg/kg, Mean): 2 h
bioavailability (male, rat, plasma, SD rats, oral 10 mg/kg versus intravenous 5 mg/kg): 23.5%

— patent US10647680B2, “Urea compound, preparation method therefor and medical use thereof” (Ancureall Pharmaceutical (Shanghai) Co., Ltd., priority 2016, dated 2020)
